Measured values: patent US20080045594A1, “Use of at Least One Conjugated Triene-Containing Fatty Acid for Preparing a Medicine for Treating Inflammation” (LABORATOIRES EXPANSCIENCE, priority 2004, published 2008)

Test system: Normal human adipocytes
Assay: lipid synthesis in suspended adipocytes (incorporation of radio-labelled acetate)
Assay type: cell-based
Conditions: 10 μM; reference molecule, inhibitor of FAS
Procedure: Normal human adipocytes were isolated from abdominal biopsies (plastic surgery). Immediately after receipt, the samples were incubated for 30 min at 37° C. in the presence of collagenase (Sigma). The suspension of adipocytes is then rinsed and diluted 3 times in the culture medium.
Culture medium: bicarbonate (Life Technologies) 1.87 mg/ml, penicillin/streptomycin (Life Technologies) 25 IU/ml/25 μg/ml, glutamine (Life Technologies) 2 mM, MEM (Merck Eurolab) 100% v/v, albumin of bovine origin (Sigma) 0.5% w/v.
The suspended adipocytes are incubated for 1 h at 37° C. in the presence of different concentrations of MA105 (20 and 2 ppm) diluted in THF (tetrahydrofurane). A […] volume of radio-labelled acetate (2-C^14, 60.87 μCi/ml, Amersham) is then added to the preparation. After 4 hrs of incubation, the lipids are extracted according to the procedure described by Bligh and Dyer (methanol/chloroform/water), evaporated under nitrogen and the incorporated radioactivity was quantitated by liquid scintillation (LKB 1210 Rackbeta).

Question: For C/C=C/C/C=C/CCC(=O)[C@H]1O[C@H]1C(N)=O [ceruline], which “inhibition of the incorporation of acetate” value is on record?
Answer: Its value is 75 % inhibition/control.
